In article PMC10078150 (2023):

Columns and labels:
[1] = system: F21T_hTelo (DNA, G4) GGGTTAGGGTTAGGGTTAGGG; test: FRET melting; conditions: K+ 10 mM (potassium phosphate); 10 mM potassium phosphate pH 7; 0.8 µM compound, 0.4 µM DNA, no competitor dsDNA
[2] = system: F21T_c-kit1 (DNA, G4) GGGAGGGCGCTGGGAGGAGGG; test: FRET melting; conditions: K+ 10 mM (potassium phosphate); 10 mM potassium phosphate pH 7; 0.8 µM compound, 0.4 µM DNA, no competitor dsDNA
[3] = system: F21T_k-ras (DNA, G4) GGGCGGTGTGGGAATAGGGAA; test: FRET melting; conditions: K+ 10 mM (potassium phosphate); 10 mM potassium phosphate pH 7; 0.8 µM compound, 0.4 µM DNA, no competitor dsDNA
[4] = system: 22_hTelo (DNA, G4) AGGGTTAGGGTTAGGGTTAGGG; test: fluorescent indicator displacement; conditions: K+ 40 mM (30 mM KCl + potassium phosphate); 10 mM potassium phosphate pH 7, 25 °C; 0.5 µM thiazole orange displaced, 0.25 µM DNA
[5] = system: 22_c-kit1 (DNA, G4) AGGGAGGGCGCTGGGAGGAGGG; test: fluorescent indicator displacement; conditions: K+ 40 mM (30 mM KCl + potassium phosphate); 10 mM potassium phosphate pH 7, 25 °C; 0.5 µM thiazole orange displaced, 0.25 µM DNA
[6] = system: 21_c-kit2 (DNA, G4) CGGGCGGGCGCGAGGGAGGGG; test: fluorescent indicator displacement; conditions: K+ 40 mM (30 mM KCl + potassium phosphate); 10 mM potassium phosphate pH 7, 25 °C; 0.5 µM thiazole orange displaced, 0.25 µM DNA
[7] = system: 22_c-myc (DNA, G4) TGAGGGTGGGTAGGGTGGGTAA; test: fluorescent indicator displacement; conditions: K+ 40 mM (30 mM KCl + potassium phosphate); 10 mM potassium phosphate pH 7, 25 °C; 0.5 µM thiazole orange displaced, 0.25 µM DNA
[8] = system: 22_k-ras (DNA, G4) AGGGCGGTGTGGGAATAGGGAA; test: fluorescent indicator displacement; conditions: K+ 40 mM (30 mM KCl + potassium phosphate); 10 mM potassium phosphate pH 7, 25 °C; 0.5 µM thiazole orange displaced, 0.25 µM DNA
[9] = system: 26_ds (DNA, duplex) CAATCGGATCGAATTCGATCCGATTG; test: fluorescent indicator displacement; conditions: K+ 40 mM (30 mM KCl + potassium phosphate); 10 mM potassium phosphate pH 7, 25 °C; 0.5 µM thiazole orange displaced, 0.25 µM DNA
[10] = system: F20T_c-kit2 (DNA, G4) GGGCGGGCGCGAGGGAGGGG; test: FRET melting; conditions: K+ 10 mM (potassium phosphate); 10 mM potassium phosphate pH 7; 0.8 µM compound, 0.4 µM DNA, no competitor dsDNA
[11] = system: F21T_c-myc (DNA, G4) GAGGGTGGGTAGGGTGGGTAA; test: FRET melting; conditions: K+ 10 mM (potassium phosphate); 10 mM potassium phosphate pH 7; 0.8 µM compound, 0.4 µM DNA, no competitor dsDNA

Row | ΔTm [1] | ΔTm [2] | ΔTm [3] | DC50 [4] | DC50 [5] | DC50 [6] | DC50 [7] | DC50 [8] | DC50 [9] | ΔTm [10] | ΔTm [11] | Compound
1 | 24.6 °C | 23.7 °C | 21.0 °C | 1060 ± 30 nM | 870 ± 20 nM | 850 ± 50 nM | 400 ± 30 nM | 450 ± 20 nM | 3900 ± 200 nM | – | – | C(=N\[C@@H](COCc1ccc(-c2ccccn2)nc1)c1ccccc1)/c1ccc(OCc2cn(Cc3ccccc3)nn2)cn1.C(=N\[C@@H](COCc1ccc(-c2ccccn2)nc1)c1ccccc1)/c1ccc(OCc2cn(Cc3ccccc3)nn2)cn1.C(=N\[C@@H](COCc1ccc(-c2ccccn2)nc1)c1ccccc1)/c1ccc(OCc2cn(Cc3ccccc3)nn2)cn1.[Fe+2].[Fe+2]
2 | – | 27.2 °C | – | 1950 ± 90 nM | 1410 ± 30 nM | 1260 ± 60 nM | 800 ± 40 nM | 650 ± 30 nM | 5300 ± 300 nM | – | – | C(=N\[C@@H](COCc1ccc(-c2ccccn2)nc1)c1ccccc1)/c1ccccn1.C(=N\[C@@H](COCc1ccc(-c2ccccn2)nc1)c1ccccc1)/c1ccccn1.C(=N\[C@@H](COCc1ccc(-c2ccccn2)nc1)c1ccccc1)/c1ccccn1.[Fe+2].[Fe+2]
3 | – | – | 41.8 °C | 1050 ± 50 nM | 790 ± 30 nM | 780 ± 50 nM | 300 ± 30 nM | 270 ± 10 nM | 2600 ± 100 nM | 11.9 °C | 5.2 °C | C(=N\[C@H](COCc1ccc(-c2ccccn2)nc1)c1ccccc1)/c1ccc(OCc2cn(Cc3ccccc3)nn2)cn1.C(=N\[C@H](COCc1ccc(-c2ccccn2)nc1)c1ccccc1)/c1ccc(OCc2cn(Cc3ccccc3)nn2)cn1.C(=N\[C@H](COCc1ccc(-c2ccccn2)nc1)c1ccccc1)/c1ccc(OCc2cn(Cc3ccccc3)nn2)cn1.[Fe+2].[Fe+2]
4 | 27.6 °C | – | – | 2200 ± 100 nM | 960 ± 40 nM | 1050 ± 40 nM | 530 ± 20 nM | 420 ± 20 nM | 3800 ± 200 nM | 19.8 °C | 11.7 °C | C(=N\[C@H](COCc1ccc(-c2ccccn2)nc1)c1ccccc1)/c1ccccn1.C(=N\[C@H](COCc1ccc(-c2ccccn2)nc1)c1ccccc1)/c1ccccn1.C(=N\[C@H](COCc1ccc(-c2ccccn2)nc1)c1ccccc1)/c1ccccn1.[Fe+2].[Fe+2]
